We go through one compound from ChEMBL document CHEMBL1139888, “Fungicidal activities of dihydroferulic acid alkyl ester analogues” (2007).

Holding throughout (assay type): functional
Experiment [1] has as its system Saccharomyces cerevisiae. The experiment can be described thus: Growth inhibition of Saccharomyces cerevisiae slt2delta deletion mutant at 3.2 mM relative to control after 48 hrs.
Experiment [2] has as its system Saccharomyces cerevisiae. The experiment in a line: Antifungal activity against Saccharomyces cerevisiae slt2delta deletion mutant assessed as cell number at 1.6 mM after 48 hrs.
The subject of experiment [3] is Saccharomyces cerevisiae. The experiment can be described thus: Growth inhibition of Saccharomyces cerevisiae slt2delta deletion mutant at 1.6 mM relative to control after 48 hrs.
Experiment [4] relates to Saccharomyces cerevisiae. The experiment can be described thus: Antifungal activity against Saccharomyces cerevisiae slt2delta deletion mutant assessed as cell number at 3.2 mM after 48 hrs.

Usually inhibition stands for the share of the control response that was lost under treatment. Lower therefore signals a weak effect. As for `CCCOC(=O)CCc1ccc(O)c(OC)c1` [DIHYDROFERULIC ACID PROPYL ESTER], the inhibition at 3200 µM in experiment [1] was 90.7%. Further, the Activity in experiment [2] turned out to be 1.13; in experiment [4], 0.43. Besides, the inhibition at 1600 µM in experiment [3] stood at 75.5%.
